Patent US10934304B2, “Spirocyclic compounds” (Recurium IP Holdings, LLC, priority 2016, dated 2021)

Legend:
A375 (melanoma) cells = assay: Proliferation Assay (CellTiter-Glo); type: cell-based; conditions: 3 days incubation, CellTiter-Glo luminescence
Experimental: A375 (melanoma), Colo-205 (colon cancer), Miapaca (pancreatic), HPAFII (pancreatic), sNF02.0 (neurofibromatosis type 1), sNF96.2 (neurofibromatosis type 1) and 8505 (Thyroid) cells were grown and maintained in RPMI-1640 medium containing 100 U/mL penicillin-streptomycin and 10% fetal bovine serum. Cells were in growth medium in 96-well opaque-walled clear bottom plates and incubated in the CO2 incubator overnight before treatment. Cells were treated with compounds diluted in DMSO and a 10 point 3-fold serial dilutions were done. Plates were placed in 37° C., 5% CO2 to incubate for 3 days. Before they were developed by adding 100 μL of CellTiter-Glo reagent (Promega) to the assay plate, plates were shaken briefly for 2 mins and allowed to incubate at room temperature for 10 mins. The bottom of the plates was pasted with white back seal and luminescence was recorded with Flexstation3 with setting of luminescence, integration time 500 ms.
Compounds of Formula (I), (II) and (III) are active in this assay as noted in Table 2.

ERK2 = ERK2 (Homo sapiens (Human), UniProt P28482); assay: Active ERK1 and ERK2 Kinase Assay (Mobility Shift Assay); type: biochemical; conditions: activated ERK2, Mobility Shift Assay
Sequence of ERK2 (P28482 whole entry): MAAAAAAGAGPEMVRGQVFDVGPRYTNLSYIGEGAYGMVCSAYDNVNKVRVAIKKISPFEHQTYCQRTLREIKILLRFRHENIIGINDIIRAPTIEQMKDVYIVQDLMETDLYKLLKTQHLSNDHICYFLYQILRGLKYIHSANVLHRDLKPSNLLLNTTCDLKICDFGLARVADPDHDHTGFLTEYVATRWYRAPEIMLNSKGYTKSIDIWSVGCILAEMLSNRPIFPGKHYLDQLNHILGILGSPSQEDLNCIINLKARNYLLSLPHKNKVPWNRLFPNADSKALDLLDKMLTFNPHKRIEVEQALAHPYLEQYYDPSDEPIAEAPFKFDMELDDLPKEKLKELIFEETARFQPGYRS
Experimental: Activated ERK1 and ERK2 activity was determined in a Mobility Shift Assay (MSA) format as follows: Compound and kinase solution were prepared with assay buffer (20 mM HEPES, 0.01% Triton X-100, 2 mM DTT, pH7.5) and mixed and incubated in for 30 mins at rt. ERK1 & ERK2 were then activated by the addition of F1-Substrate, ATP and metal solution and incubated for 1 h at rt. After 1 h, the reaction was terminated by the addition of […] of Termination Buffer (QuickScout Screening Assist MSA; Carna Biosciences) to the well. The reaction mixture was applied to LabChip™ system (PerkinElmer), and the product and substrate peptide peaks were separated, analyzed and quantitated. The kinase reaction is evaluated by the product ratio calculated from peak heights of product (P) and substrate(S) peptides (P/(P+S)).

| IC50 (A375 (melanoma) cells) | IC50 (ERK2) | IC50 (A375 (melanoma) cells; Homo sapiens, A-375, 72 h) | Compound |
| --- | --- | --- | --- |
| ≤ 500 nM | ≤ 50 nM | – | Cn1cnc(-c2cnc(C3=CCN(C(=O)CN4CC[C@]5(CCN(c6ccc7[nH]nc(-c8ccc(F)cn8)c7c6)C5=O)C4)CC3)s2)n1 [Example 54] |
| – | ≤ 50 nM | 500 to 1000 nM | Cn1cnc(-c2ccc(C3=CCN(C(=O)CN4CC[C@]5(CCN(c6ccc7[nH]nc(C8CCN(CC(F)(F)F)CC8)c7c6)C5=O)C4)CC3)cc2)n1 [Example 12, (S)-7-(2-(4-(4-(1-Methyl-1H-1,2,4-triazol-3-yl)phenyl)-5,6-dihydropyridin-1(2H)-yl)-2-oxoethyl)-2-(3-(1-(2,2,2-trifluoroethyl)piperidin-4-yl)-1H-indazol-5-yl)-2,7-diazaspiro[4.4]nonan-1-one] |
| ≤ 500 nM | ≤ 50 nM | – | CNC(=O)c1cc(-c2n[nH]c3ccc(N4CC[C@]5(CCN(CC(=O)N6CC=C(c7ccc(-c8nn(C)c(=O)o8)cc7)CC6)C5)C4=O)cc23)ccc1F [Example 16] |
| – | ≤ 50 nM | ≥ 1000 nM | COc1ncc(-c2n[nH]c3ccc(N4CC[C@]5(CCN(CC(=O)N6CC=C(c7ccc(-c8ncn(C)n8)cc7)CC6)C5)C4=O)cc23)cc1C(F)(F)F [Example 8] |
| – | ≥ 250 nM | ≥ 1000 nM | Cn1cnc(-c2ccc(C3=CCN(C(=O)CN4CC[C@]5(CCN(c6ccc7[nH]nc(N8CCC9(CC8)COC9)c7n6)C5=O)C4)CC3)cc2)n1 [Example 42, (S)-2-(3-(2-oxa-7-azaspiro[3.5]nonan-7-yl)-1H-pyrazolo[4,3-b]pyridin-5-yl)-7-(2-(4-(4-(1-methyl-1H-1,2,4-triazol-3-yl)phenyl)-3,6-dihydropyridin-1(2H)-yl)-2-oxoethyl)-2,7-diazaspiro[4.4]nonan-1-one] |
| – | ≤ 50 nM | ≤ 500 nM | CNC(=O)c1cc(-c2n[nH]c3ccc(N4CC[C@]5(CCN(CC(=O)N6CC=C(c7ccc(-c8ncn(C)n8)cc7)CC6)C5)C4=O)cc23)ccn1 [Example 5] |
| – | ≤ 50 nM | ≤ 500 nM | Cc1ccc(-c2n[nH]c3ccc(N4CC[C@]5(CCN(CC(=O)N6CC=C(c7ccc(-c8nn(C)c(=O)o8)cc7)CC6)C5)C4=O)nc23)cn1 [Example 35] |
| ≤ 500 nM | ≤ 50 nM | – | Cc1ccc(-c2n[nH]c3ccc(N4CC[C@]5(CCN(CC(=O)N6CCC(c7ccc(-c8ncn(C)n8)cc7)CC6)C5)C4=O)nc23)cn1 [Example 79] |
| – | ≤ 50 nM | 500 to 1000 nM | Cn1cnc(-c2ccc(C3=CCN(C(=O)CN4CC[C@]5(CCN(c6ccc7[nH]nc(N8CCC(F)(F)CC8)c7c6)C5=O)C4)CC3)cc2)n1 [Example 3, (S)-2-(3-(4,4-difluoropiperidin-1-yl)-1H-indazol-5-yl)-7-(2-(4-(4-(1-methyl-1H-1,2,4-triazol-3-yl)phenyl)-5,6-dihydropyridin-1 (2H)-yl)-2-oxoethyl)-2,7-diazaspiro[4.4]nonan-1-one] |
| ≤ 500 nM | ≤ 50 nM | – | COc1ccc(-c2n[nH]c3ccc(N4CC[C@]5(CCN(CC(=O)N6CC=C(c7ccc(-c8ncn(C)n8)cc7)CC6)C5)C4=O)nc23)nc1OC [Example 93] |
| – | ≤ 50 nM | ≤ 500 nM | Cc1cc(-c2n[nH]c3ccc(N4CC[C@]5(CCN(CC(=O)N6CC=C(c7ccc(-c8ncn(C)n8)cc7)CC6)C5)C4=O)nc23)ccn1 [Example 38] |
| ≤ 500 nM | ≤ 50 nM | – | CC(C)Oc1ccc(-c2n[nH]c3ccc(N4CC[C@]5(CCN(CC(=O)N6CC=C(c7ccc(-c8ncn(C)n8)s7)CC6)C5)C4=O)nc23)cn1 [Example 65] |
| 500 to 1000 nM | ≤ 50 nM | – | Cn1cnc(-c2ccc(C3=CCN(C(=O)CN4CC[C@]5(CCN(c6ccc7[nH]nc(-c8ccc(Cl)cc8F)c7n6)C5=O)C4)CC3)cc2)n1 [Example 69] |
| – | ≤ 50 nM | ≤ 500 nM | COc1ccc(-c2n[nH]c3ccc(N4CC[C@]5(CCN(CC(=O)N6CC=C(c7ccc(-c8ncn(C)n8)cc7)CC6)C5)C4=O)cc23)cn1 [Example 2] |
| ≤ 500 nM | ≤ 50 nM | – | Cn1cnc(-c2ccc(C3=CCN(C(=O)CN4CC[C@]5(CCN(c6ccc7[nH]nc(-c8ccc(Cl)cc8)c7n6)C5=O)C4)CC3)cc2)n1 [Example 68] |
| – | ≤ 50 nM | ≤ 500 nM | CC(C)n1cc(-c2n[nH]c3ccc(N4CC[C@]5(CCN(CC(=O)N6CC=C(c7ccc(-c8nn(C)c(=O)o8)cc7)CC6)C5)C4=O)cc23)cn1 [Example 31] |
| – | ≤ 50 nM | ≤ 500 nM | Cn1cnc(-c2cnc(C3=CCN(C(=O)CN4CC[C@]5(CCN(c6ccc7[nH]nc(C8CCOCC8)c7n6)C5=O)C4)CC3)s2)n1 [Example 34] |
| – | ≤ 50 nM | ≤ 500 nM | Cn1cc(-c2n[nH]c3ccc(N4CC[C@]5(CCN(CC(=O)N6CC=C(c7ccc(-c8ncn(C)n8)cc7)CC6)C5)C4=O)nc23)cn1 [Example 37] |
| ≤ 500 nM | ≤ 50 nM | – | Cn1cnc(-c2ccc(C3=CCN(C(=O)CN4CC[C@]5(CCN(c6ccc7[nH]nc(-c8ccc(F)cn8)c7c6)C5=O)C4)CC3)s2)n1 [Example 55] |
| ≤ 500 nM | ≤ 50 nM | – | COc1ccc(-c2n[nH]c3ccc(N4CC[C@]5(CCN(CC(=O)N6CC=C(c7ccc(-c8ncn(C)n8)cc7)CC6)C5)C4=O)cc23)nc1 [Example 60] |
| ≤ 500 nM | ≤ 50 nM | – | Cn1cnc(-c2ccc(C3=CCN(C(=O)CN4CC[C@]5(CCN(c6ccc7[nH]nc(-c8ccc(OC9CC9)nc8)c7n6)C5=O)C4)CC3)cc2)n1 [Example 67] |
| ≤ 500 nM | ≤ 50 nM | – | Cn1cnc(-c2ccc(C3=CCN(C(=O)CN4CC[C@]5(CCN(c6ccc7[nH]nc(C8CCOCC8)c7n6)C5=O)C4)CC3)s2)n1 [Example 64] |
| – | ≤ 50 nM | ≤ 500 nM | Cc1ncc(-c2n[nH]c3ccc(N4CC[C@]5(CCN(CC(=O)N6CC=C(c7ccc(-c8nn(C)c(=O)o8)cc7)CC6)C5)C4=O)cc23)s1 [Example 33] |
| – | ≤ 50 nM | ≤ 500 nM | Cn1cnc(-c2ccc(C3=CCN(C(=O)CN4CC[C@]5(CCN(c6ccc7[nH]nc(-c8cnc(C#N)c(Cl)c8)c7c6)C5=O)C4)CC3)cc2)n1 [Example 9] |
| – | ≤ 50 nM | ≤ 500 nM | Cc1ccc(-c2n[nH]c3ccc(N4CC[C@]5(CCN(CC(=O)N6CCC(c7ncc(-c8ncn(C)n8)s7)CC6)C5)C4=O)nc23)cn1 [Example 80] |
| – | ≥ 250 nM | ≥ 1000 nM | CN1CCC(c2n[nH]c3ccc(N4CC[C@]5(CCN(CC(=O)N6CC=C(c7ccc(-c8ncn(C)n8)cc7)CC6)C5)C4=O)cc23)CC1 [Example 4, (S)-7-(2-(4-(4-(1-methyl-1H-1,2,4-triazol-3-yl)phenyl)-3,6-dihydropyridin-1(2H)-yl)-2-oxoethyl)-2-(3-(1-methylpiperidin-4-yl)-1H-indazol-5-yl)-2,7-diazaspiro[4.4]nonan-1-one] |
| – | ≤ 50 nM | ≤ 500 nM | COc1ccc(-c2n[nH]c3ccc(N4CC[C@]5(CCN(CC(=O)N6CC=C(c7ncc(-c8ncn(C)n8)s7)CC6)C5)C4=O)nc23)cn1 [Example 36] |
| ≤ 500 nM | ≤ 50 nM | – | COc1ccc(-c2n[nH]c3ccc(N4CC[C@]5(CCN(CC(=O)N6CC=C(c7ccc(-c8ncn(C)n8)cc7)CC6)C5)C4=O)nc23)cc1 [Example 63] |
| – | ≤ 50 nM | 500 to 1000 nM | Cn1cnc(-c2ccc(C3=CCN(C(=O)CN4CC[C@]5(CCN(c6ccc7[nH]nc(C89CC(C8)C9)c7c6)C5=O)C4)CC3)cc2)n1 [Example 72, (S)-2-(3-(Bicyclo[1.1.1]pentan-1-yl)-1H-indazol-5-yl)-7-(2-(4-(4-(1-methyl-1H-1,2,4-triazol-3-yl)phenyl)-5,6-dihydropyridin-1(2H)-yl)-2-oxoethyl)-2,7-diazaspiro[4.4]nonan-1-one] |

| Compound | IC50 (A375 (melanoma) cells) | IC50 (ERK2) | IC50 (A375 (melanoma) cells; Homo sapiens, A-375, 72 h) |
| --- | --- | --- | --- |
| Cn1cnc(-c2ccc(C3=CCN(C(=O)CN4CC[C@]5(CCN(c6ccc7[nH]nc(-c8ccc(C#N)cn8)c7n6)C5=O)C4)CC3)cc2)n1 [Example 51] | ≤ 500 nM | ≤ 50 nM | – |
| CC(C)n1cc(-c2n[nH]c3ccc(N4CC[C@]5(CCN(CC(=O)N6CCN(c7ccc(-c8ncn(C)n8)cc7)CC6)C5)C4=O)nc23)cn1 [Example 41] | ≤ 500 nM | ≤ 50 nM | – |
| Cn1cnc(-c2cnc(C3=CCN(C(=O)CN4CC[C@]5(CCN(c6ccc7[nH]nc(-c8ccc(F)cc8)c7n6)C5=O)C4)CC3)s2)n1 [Example 47] | ≤ 500 nM | ≤ 50 nM | – |
| Cc1nc2cc(-c3n[nH]c4ccc(N5CC[C@]6(CCN(CC(=O)N7CC=C(c8ccc(-c9ncn(C)n9)cc8)CC7)C6)C5=O)nc34)ccc2o1 [Example 24] | ≤ 500 nM | ≤ 50 nM | – |
| CC(C)Oc1ccc(-c2n[nH]c3ccc(N4CC[C@]5(CCN(CC(=O)N6CC=C(c7ncc(-c8ncn(C)n8)s7)CC6)C5)C4=O)nc23)cn1 [Example 25] | ≤ 500 nM | ≤ 50 nM | – |
| Cn1nc(-c2ccc(C3=CCN(C(=O)CN4CC[C@]5(CCN(c6ccc7[nH]nc(-c8ccc(C#N)c(C(F)(F)F)c8)c7c6)C5=O)C4)CC3)cc2)oc1=O [Example 15] | 500 to 1000 nM | ≤ 50 nM | – |
| Cn1cnc(-c2ccc(C3=CCN(C(=O)CN4CC[C@]5(CCN(c6ccc7[nH]nc(-c8ccc(F)cn8)c7n6)C5=O)C4)CC3)cc2)n1 [Example 50] | 500 to 1000 nM | ≤ 50 nM | – |
